Assay results taken from ChEMBL document CHEMBL5303573, “Mapping human microbiome drug metabolism by gut bacteria and their genes” (Nature, 2019).

Experiment: The drug is tested on the gut metagenome community of MV12 with ENA study accession number: PRJEB31790 and ENA sample accession number: SAMEA5537493 for biotransformation. The drug concentrations were measured over 9 timepoints collected between 0 and 24 hours of incubation by liquid-chromatography-coupled mass spectrometry (LC–MS)
Format: ADME
Design: dose 2 uM, timepoint 0, 1, 2, 4, 6, 8, 12, 18, 24 hours
Conditions: 2 µM

Structure (SMILES) | Bacterial Biotransformation
COc1ccc([C@@H]2Sc3ccccc3N(CCN(C)C)C(=O)[C@@H]2OC(C)=O)cc1 [DILTIAZEM] | Compound NOT metabolized
CC(=O)OCC(CCn1cnc2cnc(N)nc21)COC(C)=O [FAMCICLOVIR] | Compound metabolized
C#C[C@]1(OC(C)=O)CC[C@H]2[C@@H]3CCC4=CC(=O)CC[C@@H]4[C@H]3CC[C@@]21C [NORETHINDRONE ACETATE] | Compound metabolized
